Structures are written as SMILES.

From BindingDB's records for patent US12570614 (Glaxosmith Kline, 2026) come the findings set out here.

For the assay, the target named is Tyrosine-protein kinase JAK2 (Homo sapiens, UniProt O60674). Briefly: Enzyme Screening Assay. Here is the method: Alphascreen phosphotyrosine acceptor beads followed by streptavidin donor beads at a concentration of 1/100 in stop buffer were added to each well under subdued light and incubated for 2-3 hours. The Alphascreen plates were read on a Packard Fusion Alpha instrument
Chain of Tyrosine-protein kinase JAK2 (O60674 whole entry, the tested form may be a part): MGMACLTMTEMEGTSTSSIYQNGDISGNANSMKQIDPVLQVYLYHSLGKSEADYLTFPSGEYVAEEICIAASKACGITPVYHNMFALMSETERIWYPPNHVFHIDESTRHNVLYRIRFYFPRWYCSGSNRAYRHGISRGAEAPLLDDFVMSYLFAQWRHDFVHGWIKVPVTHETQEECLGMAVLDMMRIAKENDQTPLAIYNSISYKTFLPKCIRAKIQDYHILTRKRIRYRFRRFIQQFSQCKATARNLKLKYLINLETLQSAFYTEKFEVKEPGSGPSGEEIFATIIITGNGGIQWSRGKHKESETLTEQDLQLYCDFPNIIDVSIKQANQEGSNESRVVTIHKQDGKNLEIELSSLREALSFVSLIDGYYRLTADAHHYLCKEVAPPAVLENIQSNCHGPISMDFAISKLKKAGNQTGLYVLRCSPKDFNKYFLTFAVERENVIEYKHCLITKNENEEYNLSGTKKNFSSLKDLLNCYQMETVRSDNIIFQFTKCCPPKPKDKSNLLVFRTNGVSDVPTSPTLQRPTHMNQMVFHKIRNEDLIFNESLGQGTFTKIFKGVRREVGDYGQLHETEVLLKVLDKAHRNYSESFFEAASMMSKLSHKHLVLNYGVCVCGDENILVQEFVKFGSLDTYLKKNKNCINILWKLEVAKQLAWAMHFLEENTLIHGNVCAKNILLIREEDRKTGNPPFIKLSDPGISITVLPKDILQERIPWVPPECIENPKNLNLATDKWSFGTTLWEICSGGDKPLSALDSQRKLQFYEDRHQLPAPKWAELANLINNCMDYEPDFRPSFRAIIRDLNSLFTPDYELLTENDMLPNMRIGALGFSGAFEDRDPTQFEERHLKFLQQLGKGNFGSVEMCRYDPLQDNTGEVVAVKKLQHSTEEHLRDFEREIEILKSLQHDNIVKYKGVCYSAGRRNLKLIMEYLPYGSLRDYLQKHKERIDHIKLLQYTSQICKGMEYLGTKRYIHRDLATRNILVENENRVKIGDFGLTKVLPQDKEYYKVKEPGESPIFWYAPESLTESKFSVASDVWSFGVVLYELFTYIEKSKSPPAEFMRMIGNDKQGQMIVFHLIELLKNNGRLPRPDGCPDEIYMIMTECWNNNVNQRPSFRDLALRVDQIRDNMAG

In turn, `CCN1CCC(OC2CCC(Nc3nccc(-c4ccc(C(=O)NCC#N)cc4)n3)CC2)CC1` (stereo unspecified) [US12570614, Compound 80] had an IC50 below 1000 nM.
